Measurements published in the supplement of paper PMC10307832.

How the values were obtained:
Experiment in all cases: relative viability (nuclei count vs DMSO), 5 days (fraction); higher = more cells survive
[1] = compound: Cn1c(=O)n(-c2ccc(C(C)(C)C#N)cc2)c2c3cc(-c4cnc5ccccc5c4)ccc3ncc21 [Dactolisib] + CS(=O)(=O)N1CCN(Cc2cc3nc(-c4cccc5[nH]ncc45)nc(N4CCOCC4)c3s2)CC1 [Pictilisib] (partner 1 µM)
Procedure, shortened: (§1)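 One day after seeding in 1536-well plates, lung cancer cell lines were dosed by pin tool. Dosing was either single-drug or a fixed anchor-drug dose plus five library-drug doses (not always all listed) in √10 steps. After 5 days, nuclei were stained in one fix-and-stain step and counted on 4× images, and relative viability is the nuclei count of treated wells over that of vehicle wells, given as the median of duplicate plates.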

[2] = compound: C1CCC(CC1)N(CCNCCC2=C3C(=C(C=C2)O)NC(=O)CO3)C(=O)CCNCCC4=CC(=C(C=C4)Cl)Cl [AZ505] + COc1cc2c(Oc3ccc(NC(=O)C4(C(=O)Nc5ccc(F)cc5)CC4)cc3F)ccnc2cc1OCCCN1CCOCC1 [Foretinib] (partner 0.25 µM)
Procedure, shortened: as §1

[3] = compound: C1CCC(CC1)N(CCNCCC2=C3C(=C(C=C2)O)NC(=O)CO3)C(=O)CCNCCC4=CC(=C(C=C4)Cl)Cl [AZ505] + C[C@@H](Oc1cc(-c2cnn(C3CCNCC3)c2)cnc1N)c1c(Cl)ccc(F)c1Cl [Crizotinib] (partner 1 µM)
Procedure, shortened: as §1

[4] = compound: C1CCC(CC1)N(CCNCCC2=C3C(=C(C=C2)O)NC(=O)CO3)C(=O)CCNCCC4=CC(=C(C=C4)Cl)Cl [AZ505] + C[C@]1(O)C[C@@H](c2nc(-c3ccc4ccc(-c5ccccc5)nc4c3)c3c(N)nccn32)C1 [Linsitinib] (partner 1 µM)
Procedure, shortened: as §1

Cell Line | relative viability ([1]; first compound 0.002 µM) | relative viability ([1]; first compound 0.006325 µM) | relative viability ([1]; first compound 0.02 µM) | relative viability ([1]; first compound 0.06325 µM) | relative viability ([1]; first compound 0.2 µM) | relative viability ([2]; first compound 0.08 µM) | relative viability ([2]; first compound 0.253 µM) | relative viability ([2]; first compound 0.8 µM) | relative viability ([2]; first compound 2.53 µM) | relative viability ([2]; first compound 8 µM) | relative viability ([3]; first compound 0.08 µM) | relative viability ([3]; first compound 0.253 µM) | relative viability ([3]; first compound 0.8 µM) | relative viability ([3]; first compound 2.53 µM) | relative viability ([3]; first compound 8 µM) | relative viability ([4]; first compound 0.08 µM) | relative viability ([4]; first compound 0.253 µM) | relative viability ([4]; first compound 0.8 µM) | relative viability ([4]; first compound 2.53 µM) | relative viability ([4]; first compound 8 µM)
RERF-LC-KJ | 0.562 | 0.519 | 0.466 | 0.41 | 0.293 | 0.906 | 0.829 | 0.8 | 0.46 | 0.863 | 0.769 | 0.848 | 0.774 | 0.842 | 0.833 | 0.857 | 0.85 | 0.929 | 0.897 | 0.902
NCI-H1650 | 0.672 | 0.48 | 0.524 | 0.321 | 0.323 | 0.965 | 1.05 | 1.34 | 0.865 | 1.24 | 0.985 | 1.12 | 0.991 | 0.963 | 0.915 | – | – | – | – | –
BEN | 0.505 | 0.529 | 0.463 | 0.4 | 0.282 | 0.612 | 0.644 | 0.693 | 0.675 | 0.833 | 0.789 | 0.889 | 0.854 | 0.816 | 1.07 | 0.735 | 1.1 | 0.904 | 0.891 | 1.12
EMC-BAC-2 | 0.528 | 0.542 | 0.512 | 0.379 | 0.341 | 0.95 | 0.99 | 0.993 | 0.985 | 0.961 | 0.791 | 0.911 | 0.698 | 0.735 | 0.761 | 0.767 | 0.834 | 0.813 | 0.822 | 0.879
LU99A | 0.299 | 0.285 | 0.269 | 0.222 | 0.179 | – | 0.987 | 0.815 | 0.78 | 0.751 | 0.474 | 0.592 | 0.594 | 0.638 | 0.575 | 0.524 | 0.647 | 0.507 | 0.573 | 0.565
ABC-1 | 0.675 | 0.618 | 0.627 | 0.402 | 0.331 | 0.856 | 1.21 | 0.976 | 1.02 | 0.863 | 1.01 | 1.12 | 1.19 | 1.21 | 1.24 | 0.636 | 0.889 | 0.935 | 0.901 | 0.697
NCI-H2170 | 0.305 | 0.311 | 0.289 | 0.22 | 0.224 | 1.05 | 1.07 | 0.994 | 1.03 | 0.934 | 1.07 | 1.24 | 1.12 | 1.26 | 1.22 | – | – | – | – | –
NCI-H1299 | 0.794 | 0.701 | 0.659 | 0.351 | 0.253 | 1.01 | 1.03 | 0.987 | 1.1 | 1.1 | 0.959 | 1.06 | 0.969 | 0.926 | 0.988 | 0.913 | 0.942 | 0.965 | 0.903 | 0.922
